Active and inactive are the calls of the source.
Legend:
[1] = molecular target: T1, Neuropeptide Y receptor type 1 (Homo sapiens, UniProt P25929); experiment: Fluorescence-based counterscreen for agonists of NPY-Y2: cell-based high-throughput dose response assay for agonists of NPY-Y1.; assay type: functional
T1 sequence (P25929 whole entry): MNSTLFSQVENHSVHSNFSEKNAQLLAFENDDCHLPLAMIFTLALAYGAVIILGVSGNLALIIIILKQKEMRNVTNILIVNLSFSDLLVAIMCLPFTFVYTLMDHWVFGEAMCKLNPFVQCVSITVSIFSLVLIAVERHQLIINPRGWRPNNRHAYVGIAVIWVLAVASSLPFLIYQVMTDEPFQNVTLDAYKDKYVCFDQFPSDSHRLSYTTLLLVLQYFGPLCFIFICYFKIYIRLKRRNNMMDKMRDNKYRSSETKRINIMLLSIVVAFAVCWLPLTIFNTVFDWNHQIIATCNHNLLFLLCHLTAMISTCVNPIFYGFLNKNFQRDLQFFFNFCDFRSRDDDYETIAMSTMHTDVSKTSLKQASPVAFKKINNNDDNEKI

[2] = system: HEK293; experiment: Fluorescence-based counterscreen for potentiators or agonists of NPY-Y2: cell-based high-throughput dose response assay to identify inhibitors of cyclic nucleotide gated ion channel (CNGC) activity. In this assay, the parental HEK293 cell line transfected with a cyclic-nucleotide gated ion channel (CNGC)-based cAMP sensor is used to measure inhibition of isoproterenol-induced CNGC activity by test compound.; assay type: functional; conditions: Homo sapiens;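 further: stimulus is 1 µM isoproterenol at EC100 plus PDE inhibitor Ro 20-1724 at 25 µM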
[3] = molecular target: T2, Neuropeptide Y receptor type 2 (Homo sapiens, UniProt P49146); experiment: Fluorescence-based cell-based high-throughput dose response assay for agonists of NPY-Y2. [Related pubchem assays: 1703 (Screening assay (CNGC inhibitors).), 1359 (Screening assay (NPY-Y2 potentiators or agonists).), 1304 (Screening assay (NPY-Y1 potentiators or agonists).), 1710 (Screening assay (NPY-Y2 agonists).), 1791 (Summary AID.)]; assay type: functional
T2 sequence (P49146 whole entry): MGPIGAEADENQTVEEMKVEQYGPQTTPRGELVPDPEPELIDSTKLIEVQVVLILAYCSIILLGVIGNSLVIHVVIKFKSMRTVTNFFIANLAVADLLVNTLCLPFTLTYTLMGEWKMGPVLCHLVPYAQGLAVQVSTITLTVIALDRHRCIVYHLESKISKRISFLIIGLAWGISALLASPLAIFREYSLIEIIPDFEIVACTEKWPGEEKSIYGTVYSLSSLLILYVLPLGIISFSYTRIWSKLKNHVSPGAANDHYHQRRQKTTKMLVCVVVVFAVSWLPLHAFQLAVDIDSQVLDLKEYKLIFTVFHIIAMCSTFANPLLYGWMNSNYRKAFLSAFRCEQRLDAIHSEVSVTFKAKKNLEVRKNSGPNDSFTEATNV

[4] = molecular target: T3, DNA dC->dU-editing enzyme APOBEC-3A (Homo sapiens, UniProt P31941); experiment: Dose Response confirmation of small molecule APOBEC3A DNA Deaminase Inhibitors via a fluorescence-based single-stranded DNA deaminase assay. [Related pubchem assays (depositor defined):AID493011, AID493024]; assay type: functional
T3 sequence (P31941 whole entry): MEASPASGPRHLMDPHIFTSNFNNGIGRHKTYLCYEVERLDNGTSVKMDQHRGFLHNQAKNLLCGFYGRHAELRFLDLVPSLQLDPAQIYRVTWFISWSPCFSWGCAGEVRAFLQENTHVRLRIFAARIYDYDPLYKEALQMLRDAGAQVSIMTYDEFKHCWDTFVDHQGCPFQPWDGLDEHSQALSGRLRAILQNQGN

[5] = molecular target: T4, DNA dC->dU-editing enzyme APOBEC-3G (Homo sapiens, UniProt Q9HC16); assay type: functional
T4 sequence (Q9HC16 whole entry): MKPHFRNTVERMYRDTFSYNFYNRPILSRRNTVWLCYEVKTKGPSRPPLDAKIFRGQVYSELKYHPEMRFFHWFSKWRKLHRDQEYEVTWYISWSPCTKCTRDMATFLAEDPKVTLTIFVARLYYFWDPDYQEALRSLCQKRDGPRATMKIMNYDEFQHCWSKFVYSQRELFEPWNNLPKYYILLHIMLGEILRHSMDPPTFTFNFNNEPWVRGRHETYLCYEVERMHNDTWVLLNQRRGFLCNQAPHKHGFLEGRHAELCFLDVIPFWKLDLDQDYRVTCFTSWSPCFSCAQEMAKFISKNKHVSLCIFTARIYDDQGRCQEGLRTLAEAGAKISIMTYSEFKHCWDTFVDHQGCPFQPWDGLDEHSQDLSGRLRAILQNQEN

[6] = molecular target: T5, Leucine aminopeptidase (Plasmodium falciparum 3D7, UniProt Q8IL11); experiment: P. falciparum M17LAP inhibitors, primary screen, biochemical, fluorogenic H-Leu-NHMec substrate, 1536-well (AID 1619); assay type: functional
T5 sequence (Q8IL11 whole entry): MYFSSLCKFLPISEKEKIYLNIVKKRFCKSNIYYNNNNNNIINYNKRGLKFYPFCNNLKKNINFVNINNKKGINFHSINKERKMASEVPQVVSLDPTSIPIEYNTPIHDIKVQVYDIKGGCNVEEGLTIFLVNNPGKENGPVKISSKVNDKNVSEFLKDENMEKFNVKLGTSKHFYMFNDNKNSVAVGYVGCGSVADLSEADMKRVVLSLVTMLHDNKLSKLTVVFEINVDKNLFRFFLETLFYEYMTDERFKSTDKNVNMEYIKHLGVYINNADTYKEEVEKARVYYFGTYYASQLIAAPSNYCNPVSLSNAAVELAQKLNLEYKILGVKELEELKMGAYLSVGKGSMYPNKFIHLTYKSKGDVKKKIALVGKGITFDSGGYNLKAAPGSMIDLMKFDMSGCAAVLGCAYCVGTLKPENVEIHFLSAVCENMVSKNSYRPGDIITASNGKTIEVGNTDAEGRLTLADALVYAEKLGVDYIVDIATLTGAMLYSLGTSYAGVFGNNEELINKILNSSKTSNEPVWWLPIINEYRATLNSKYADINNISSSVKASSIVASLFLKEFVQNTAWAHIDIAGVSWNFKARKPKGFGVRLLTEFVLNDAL

[7] = molecular target: T6, Aspartyl aminopeptidase (Plasmodium falciparum 3D7, UniProt Q8I2J3); experiment: Counterscreen for inhibitors of M1 and M17 aminopeptidases: QFRET-based biochemical high throughput dose response assay for inhibitors of the Plasmodium falciparum M18 Aspartyl Aminopeptidase (PFM18AAP). [Related PubChem assays: 1619 (Screening assay (M17LAP inhibitors).), 1445 (Screening assay (M1AAP inhibitors).)]
T6 sequence (Q8I2J3 whole entry): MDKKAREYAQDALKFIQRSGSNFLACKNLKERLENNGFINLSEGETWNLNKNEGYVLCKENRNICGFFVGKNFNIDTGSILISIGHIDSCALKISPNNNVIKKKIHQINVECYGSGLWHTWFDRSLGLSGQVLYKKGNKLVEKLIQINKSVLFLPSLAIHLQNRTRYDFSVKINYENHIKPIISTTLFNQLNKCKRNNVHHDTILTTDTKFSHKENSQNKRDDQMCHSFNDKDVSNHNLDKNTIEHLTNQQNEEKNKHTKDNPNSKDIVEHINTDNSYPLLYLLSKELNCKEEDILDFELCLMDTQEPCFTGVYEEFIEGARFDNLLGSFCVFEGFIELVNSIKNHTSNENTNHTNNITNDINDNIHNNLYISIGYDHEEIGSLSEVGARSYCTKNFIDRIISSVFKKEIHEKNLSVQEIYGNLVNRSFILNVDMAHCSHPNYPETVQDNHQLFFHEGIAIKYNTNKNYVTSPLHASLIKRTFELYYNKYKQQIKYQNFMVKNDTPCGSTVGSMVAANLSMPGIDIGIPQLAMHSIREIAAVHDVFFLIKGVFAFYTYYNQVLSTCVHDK

[8] = molecular target: Procathepsin L (Homo sapiens, UniProt P07711); experiment: CTSL1 protease inhibition – biochemical, QFRET, 1536-well, counter-screen for M1/M17 aminopeptidase inhibitor project, dose response (AID 2214)
Procathepsin L, sequence (P07711 whole entry): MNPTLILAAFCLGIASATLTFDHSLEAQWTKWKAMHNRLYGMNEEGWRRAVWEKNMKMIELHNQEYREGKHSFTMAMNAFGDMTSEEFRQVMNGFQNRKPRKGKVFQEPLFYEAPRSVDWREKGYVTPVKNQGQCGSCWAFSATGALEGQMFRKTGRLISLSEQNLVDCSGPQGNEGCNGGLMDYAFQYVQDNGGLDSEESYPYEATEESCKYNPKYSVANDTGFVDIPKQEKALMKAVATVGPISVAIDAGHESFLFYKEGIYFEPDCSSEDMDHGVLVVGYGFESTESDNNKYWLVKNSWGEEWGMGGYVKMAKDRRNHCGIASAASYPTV

[9] = molecular target: CAAX prenyl protease 2 (Saccharomyces cerevisiae S288c, UniProt Q03530); assay type: biochemical
CAAX prenyl protease 2, sequence (Q03530 whole entry): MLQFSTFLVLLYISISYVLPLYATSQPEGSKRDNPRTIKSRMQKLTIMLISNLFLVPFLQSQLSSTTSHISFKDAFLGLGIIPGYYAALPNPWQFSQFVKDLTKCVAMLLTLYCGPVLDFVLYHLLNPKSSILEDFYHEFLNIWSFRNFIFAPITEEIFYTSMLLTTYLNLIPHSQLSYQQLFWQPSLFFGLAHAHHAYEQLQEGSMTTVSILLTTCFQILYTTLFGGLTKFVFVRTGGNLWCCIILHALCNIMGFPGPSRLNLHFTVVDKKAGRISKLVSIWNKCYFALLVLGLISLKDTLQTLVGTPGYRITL

[10] = viability of uninfected HEp-2 cells – cell-based, HTS, cytotoxicity control for RSV inhibitor project, dose response (AID 2410); assay type: functional; conditions: human respiratory syncytial virus
[11] = cells
[12] = HPDE-C7 pancreatic duct cell viability loss – fluorescence, HTS (AID 430); assay type: functional, cell-based; conditions: Homo sapiens
[13] = viability loss of HPDE-C7K cells – cell-based, fluorescence, HTS, primary screen (AID 431); assay type: functional; conditions: Homo sapiens
[14] = molecular target: T7, Coagulation factor XII (Homo sapiens, UniProt P00748); assay type: functional;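 further: activated factor XIIa alpha cleaving a fluorogenic AMC peptide substrate; inhibitor potency from loss of enzyme activity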
T7 sequence (P00748 whole entry): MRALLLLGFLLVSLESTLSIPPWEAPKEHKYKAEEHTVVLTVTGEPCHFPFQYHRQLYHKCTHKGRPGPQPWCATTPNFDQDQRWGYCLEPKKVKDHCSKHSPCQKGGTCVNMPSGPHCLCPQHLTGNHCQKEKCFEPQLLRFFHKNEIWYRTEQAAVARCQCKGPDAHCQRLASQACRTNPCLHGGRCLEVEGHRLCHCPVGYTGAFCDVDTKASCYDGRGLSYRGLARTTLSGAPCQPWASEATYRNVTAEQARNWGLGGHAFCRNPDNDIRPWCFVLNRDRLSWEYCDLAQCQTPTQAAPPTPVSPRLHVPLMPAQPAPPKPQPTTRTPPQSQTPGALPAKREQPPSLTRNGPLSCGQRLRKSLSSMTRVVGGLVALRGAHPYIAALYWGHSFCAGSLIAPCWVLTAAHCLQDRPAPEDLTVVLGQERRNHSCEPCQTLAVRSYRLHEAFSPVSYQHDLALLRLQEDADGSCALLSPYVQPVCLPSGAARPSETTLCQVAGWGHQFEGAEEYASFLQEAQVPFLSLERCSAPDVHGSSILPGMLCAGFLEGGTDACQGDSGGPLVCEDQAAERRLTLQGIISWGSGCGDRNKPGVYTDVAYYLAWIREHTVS

[15] = molecular target: Peroxisome proliferator-activated receptor gamma/Nuclear receptor coactivator 3 (Homo sapiens, UniProt P37231); experiment: (§1) TR-FRET dose response biochemical High Throughput Screening assay for agonists of the steroid receptor coactivator 3 (SRC-3) recruitment by the peroxisome proliferator-activated receptor gamma (PPAR gamma): non-selective agonists. [Related pubchem assays: 1301 (Confirmation screen.), 1048 (Primary screen.)]; assay type: functional
[16] = molecular target: Peroxisome proliferator-activated receptor gamma/Nuclear receptor coactivator 1 (Homo sapiens, UniProt P37231); experiment: as §1, with “1 (SRC-1)” for “3 (SRC-3)”, “assays (depositor defined):AID1300, AID1808, AID504735, AID631]” for “assays: 1301 (Confirmation screen.), 1048 (Primary screen.)]”; assay type: protein assay
[17] = molecular target: FAD-linked sulfhydryl oxidase ALR (Homo sapiens, UniProt P55789); experiment: ALR-catalysed DTT oxidation blockers – biochemical, H2O2 detection, luminescence, cherry-pick, dose response (AID 493248)
FAD-linked sulfhydryl oxidase ALR, sequence (P55789 whole entry): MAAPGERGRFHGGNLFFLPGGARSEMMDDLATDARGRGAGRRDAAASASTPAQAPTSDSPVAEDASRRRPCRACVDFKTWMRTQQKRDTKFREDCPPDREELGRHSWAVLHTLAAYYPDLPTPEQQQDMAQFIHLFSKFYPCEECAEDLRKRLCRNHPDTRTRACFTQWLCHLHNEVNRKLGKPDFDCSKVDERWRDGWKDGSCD

[18] = molecular target: Peroxisome proliferator-activated receptor gamma/Nuclear receptor coactivator 2 (Homo sapiens, UniProt P37231); experiment: TR-FRET dose response biochemical High Throughput Screening assay for agonists of the steroid receptor coactivator 2 (SRC-2) recruitment by the peroxisome proliferator-activated receptor gamma (PPAR gamma): non-selective agonists. [Related pubchem assays: 1297, 1032 ]; assay type: functional
Peroxisome proliferator-activated receptor gamma/Nuclear receptor coactivator 2, sequence (P37231 whole entry): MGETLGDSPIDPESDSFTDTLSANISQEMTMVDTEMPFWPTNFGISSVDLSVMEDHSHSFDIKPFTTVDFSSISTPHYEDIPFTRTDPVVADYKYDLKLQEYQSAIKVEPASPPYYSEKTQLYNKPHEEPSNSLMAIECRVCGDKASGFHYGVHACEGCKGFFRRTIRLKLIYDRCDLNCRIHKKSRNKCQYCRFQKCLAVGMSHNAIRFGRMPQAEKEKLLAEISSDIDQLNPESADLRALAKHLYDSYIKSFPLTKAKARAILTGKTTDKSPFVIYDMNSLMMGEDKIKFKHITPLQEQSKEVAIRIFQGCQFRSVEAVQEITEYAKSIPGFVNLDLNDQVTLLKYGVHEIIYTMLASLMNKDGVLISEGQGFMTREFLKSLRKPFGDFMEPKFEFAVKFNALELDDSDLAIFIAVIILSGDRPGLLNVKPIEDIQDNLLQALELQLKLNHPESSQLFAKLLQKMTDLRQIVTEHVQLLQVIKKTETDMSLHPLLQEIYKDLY
Peroxisome proliferator-activated receptor gamma/Nuclear receptor coactivator 2, sequence (Q15596 whole entry, further chain): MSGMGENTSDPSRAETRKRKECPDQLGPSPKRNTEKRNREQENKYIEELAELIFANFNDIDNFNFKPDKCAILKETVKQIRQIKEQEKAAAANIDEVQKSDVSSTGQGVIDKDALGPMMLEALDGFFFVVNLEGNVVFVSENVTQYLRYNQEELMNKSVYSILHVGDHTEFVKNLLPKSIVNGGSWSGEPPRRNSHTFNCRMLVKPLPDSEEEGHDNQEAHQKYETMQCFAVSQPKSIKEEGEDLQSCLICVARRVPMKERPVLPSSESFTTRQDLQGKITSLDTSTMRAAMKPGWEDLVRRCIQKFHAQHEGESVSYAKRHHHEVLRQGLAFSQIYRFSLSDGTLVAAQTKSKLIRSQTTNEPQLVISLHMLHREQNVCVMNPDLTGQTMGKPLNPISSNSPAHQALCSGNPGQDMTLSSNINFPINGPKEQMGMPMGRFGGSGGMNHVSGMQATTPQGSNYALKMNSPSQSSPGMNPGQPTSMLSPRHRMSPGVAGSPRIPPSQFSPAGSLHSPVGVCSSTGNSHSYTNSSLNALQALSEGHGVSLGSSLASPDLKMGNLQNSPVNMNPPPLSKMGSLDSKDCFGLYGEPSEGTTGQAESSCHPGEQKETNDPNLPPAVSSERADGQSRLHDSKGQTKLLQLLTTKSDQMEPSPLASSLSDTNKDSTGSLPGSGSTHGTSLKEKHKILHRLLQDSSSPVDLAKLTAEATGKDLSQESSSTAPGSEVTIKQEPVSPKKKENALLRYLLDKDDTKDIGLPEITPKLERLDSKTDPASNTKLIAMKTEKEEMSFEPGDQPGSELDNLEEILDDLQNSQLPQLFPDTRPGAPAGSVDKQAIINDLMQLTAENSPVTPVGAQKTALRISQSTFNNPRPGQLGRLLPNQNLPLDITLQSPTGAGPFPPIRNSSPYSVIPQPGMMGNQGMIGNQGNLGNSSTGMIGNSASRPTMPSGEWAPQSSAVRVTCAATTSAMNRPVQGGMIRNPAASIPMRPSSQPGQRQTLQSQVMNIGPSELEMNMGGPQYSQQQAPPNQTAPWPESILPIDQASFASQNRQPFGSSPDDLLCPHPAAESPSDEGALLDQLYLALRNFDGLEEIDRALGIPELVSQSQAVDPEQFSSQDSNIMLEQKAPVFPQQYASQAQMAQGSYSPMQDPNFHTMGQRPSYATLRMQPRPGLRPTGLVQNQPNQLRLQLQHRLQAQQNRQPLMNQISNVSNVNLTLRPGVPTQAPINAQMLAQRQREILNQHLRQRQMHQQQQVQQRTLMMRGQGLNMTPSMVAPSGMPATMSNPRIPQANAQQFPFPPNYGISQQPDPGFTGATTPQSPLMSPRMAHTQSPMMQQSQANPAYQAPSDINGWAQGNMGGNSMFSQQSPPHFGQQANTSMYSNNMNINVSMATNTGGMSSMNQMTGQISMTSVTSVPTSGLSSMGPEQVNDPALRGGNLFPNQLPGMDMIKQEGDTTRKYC

[19] = molecular target: T3, DNA dC->dU-editing enzyme APOBEC-3A; experiment: A3A deaminase inhibition for selectivity – biochemical, dose response (AID 504722); assay type: functional
[20] = molecular target: T4, DNA dC->dU-editing enzyme APOBEC-3G; experiment: Dose Response confirmation of small molecule APOBEC3G DNA Deaminase Inhibitors via a fluorescence-based single-stranded DNA deaminase assay. [Related pubchem assays (depositor defined):AID493012, AID493028]; assay type: functional
[21] = molecular target: T8, Ubiquitin-conjugating enzyme E2 N (Homo sapiens, UniProt P61088); assay type: functional;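 further: Dose-response confirmation in a TR-FRET assay detecting UBC13-driven polyubiquitin chain formation, inhibition measured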
T8 sequence (P61088 whole entry): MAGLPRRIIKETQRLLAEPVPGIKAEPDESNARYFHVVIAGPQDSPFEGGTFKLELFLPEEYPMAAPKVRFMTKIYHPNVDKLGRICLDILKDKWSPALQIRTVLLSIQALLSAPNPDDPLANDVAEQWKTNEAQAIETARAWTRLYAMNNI

[22] = molecular target: Eukaryotic translation initiation factor 4H (Homo sapiens, UniProt Q15056); experiment: eIF4H binding inhibition – biochemical, uHTS, fluorescence polarization, translation initiation inhibitor project, primary screen (AID 2012)
[23] = molecular target: Polyadenylate-binding protein 1 (Homo sapiens, UniProt P11940); experiment: blockers of PABP interaction with poly(A) – biochemical, fluorescence polarization, […] (AID 2014)
Polyadenylate-binding protein 1, sequence (P11940 whole entry): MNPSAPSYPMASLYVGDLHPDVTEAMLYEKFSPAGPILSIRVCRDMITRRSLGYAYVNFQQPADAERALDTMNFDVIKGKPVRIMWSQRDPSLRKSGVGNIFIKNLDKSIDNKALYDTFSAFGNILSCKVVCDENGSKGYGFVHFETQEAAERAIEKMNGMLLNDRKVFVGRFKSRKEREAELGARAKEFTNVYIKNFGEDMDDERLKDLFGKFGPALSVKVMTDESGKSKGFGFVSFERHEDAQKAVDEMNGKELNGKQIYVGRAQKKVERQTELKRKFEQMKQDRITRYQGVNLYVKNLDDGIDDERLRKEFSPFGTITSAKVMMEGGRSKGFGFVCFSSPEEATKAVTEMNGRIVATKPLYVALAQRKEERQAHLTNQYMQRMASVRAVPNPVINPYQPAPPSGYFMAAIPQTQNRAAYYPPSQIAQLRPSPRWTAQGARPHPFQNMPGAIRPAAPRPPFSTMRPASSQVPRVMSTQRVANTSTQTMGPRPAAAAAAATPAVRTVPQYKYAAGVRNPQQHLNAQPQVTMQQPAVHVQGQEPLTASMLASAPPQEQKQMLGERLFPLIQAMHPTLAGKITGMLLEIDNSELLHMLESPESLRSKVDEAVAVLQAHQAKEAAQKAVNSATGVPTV

[24] = microbe, parasite or virus in culture; assay type: functional; conditions: Mycobacterium tuberculosis
[25] = A High Throughput Confirmatory Assay used to Identify Novel Compounds that Inhibit Mycobacterium Tuberculosis in the absence of Glycerol.; assay type: functional
[26] = cells; assay type: functional, cell-based
[27] = cells; assay type: functional, cell-based; remark: listed apart in the source

CCc1cc[n+](/C(C([S-])=Nc2cccc(C)c2)=C(/O)c2ccc(C)c([N+](=O)[O-])c2)cc1
EC50 [1]: > 35.4 µM (not active) | EC50 [2]: > 35.4 µM (not active) | EC50 [3]: > 35.4 µM (not active)

CCn1c(C)cc(/C=C2\NC(=O)N(CC(=O)Nc3ccc(F)cc3)C2=O)c1C
IC50 [4]: 1.24 µM (active) | IC50 [5]: 2.2 µM (active)

Cc1cccc(NC(=O)CSc2nc(O)c(C#N)c(-c3ccccc3)n2)c1C
IC50 [6]: 5.37 µM (active) | IC50 [7]: > 73.5 µM (not active) | IC50 [8]: > 59.6 µM (not active)

COc1cc2ccccc2cc1C(=O)N(CCN(C)C)c1nc2ccc(C)cc2s1
AC50 [9]: 11.3 µM (active)

Cc1cc(Nc2ccccc2Cl)nc(-c2ccccc2O)n1
CC50 [10]: 38.5 µM (active) | IC50 [11]: 34.7 µM (active)

CCc1c(C)nc(N)nc1OCC(F)(F)C(F)F
EC50 [12]: > 20 µM (not active) | EC50 [13]: > 20 µM (not active)

Nc1c(Cl)cc(C2=NCCn3nc4cc(C(F)(F)F)ccc4c32)cc1Cl
AC50 [9]: 5.28 µM (active)

COc1cc(COCC(O)CN2CCOCC2)cc(OC)c1OC (configuration not stated)
IC50 [14]: > 50 µM (inactive)

Cc1ccc(O)c(-c2cc(-c3ccccc3C)[nH]n2)c1
EC50 [12]: 11 µM (active) | EC50 [13]: 8.16 µM (active)

Cc1cccc(-n2c(S)nnc2-c2ccco2)c1
EC50 [15]: > 79.4 µM (not active) | EC50 [16]: > 79.4 µM (inactive) | AC50 [17]: 5.51 µM (active) | EC50 [18]: > 79.4 µM (not active) | IC50 [19]: > 100 µM (inactive) | IC50 [20]: 6.36 µM (active)

COc1ccc(S(=O)(=O)NCc2ccco2)cc1-c1nnc2c3ccccc3c(C)nn12
IC50 [11]: 11.2 µM (active)

Cc1ccc2c(c1)C1C[N+](C)(CC(=O)c3ccc(Cl)cc3Cl)CCC1N2C(=O)c1ccc(F)cc1 (configuration not stated)
IC50 [21]: > 20 µM (inactive) | IC50 [4]: 2.65 µM (active) | IC50 [5]: 2.88 µM (active)

CN(Cc1cccc(Cl)c1)C(=O)C1CSC2(C)CCC(=O)N12 (configuration not stated)
IC50 [22]: > 100 µM (inactive) | IC50 [23]: 29.4 µM (active)

Cc1sc2ncnc(N3CCC(C(=O)N(CC(C)C)c4nc5ccccc5s4)CC3)c2c1C
CC50 [24]: > 40 µM (active) | IC50 [25]: > 100 µM (active)

CCCCCNc1nc(N2CCCC2)c2c(c1C#N)CCN(C)C2
CC50 [24]: > 40 µM (active) | IC50 [25]: > 100 µM (active)

Sc1nnc(-c2ccco2)n1/N=C/c1cccs1
EC50 [26]: > 350 µM (not active) | EC50 [27]: > 350 µM (not active) | IC50 [19]: > 100 µM (inactive) | IC50 [20]: 3.28 µM (active)
